Reference: ChEMBL document CHEMBL4038264, “Nabscessins A and B, Aminocyclitol Derivatives from Nocardia abscessus IFM 10029T” (J Nat Prod, 2017)
Values after ≈ are worked out from the molar mass of the structure shown. *1 amine or outer side, *2 acyl side, *3 side chain or, on linkers, in order; H or OH if unused. Where a SMILES comes first, the peptide text is derived from it. Bridges are numbered along the chain shown (N, C = ends). [ ]: non-standard residue; d: D form. The star is where a group is joined. hTyr(3S-OH,4S-OH,3'-OSO3H) = N[C@H](C(=O)O)[C@H](O)[C@@H](O)c1ccc(O)c(OS(=O)(=O)O)c1; Orn(4R-OH,5R-OH) = O=C([C@H](C[C@@H](O)[C@@H](O)N[*:3])N[*:1])[*:2]; Pro(3S-OH,4S-Me) = C[C@H]1CN[C@H](C(=O)O)[C@H]1O; X1 = CCCCCOc1ccc(-c2cc(-c3ccc(C(=O)*)cc3)no2)cc1; Gln(3R-OH) = NC(=O)C[C@@H](O)[C@H](N)C(=O)O; Hyp = O=C(O)[C@@H]1C[C@@H](O)CN1

Columns and labels:
Assay type in all cases: functional
Staphylococcus aureus = assay: Antibacterial activity against Staphylococcus aureus after 48 hrs by broth micro-dilution method
Aspergillus niger = assay: Antifungal activity against Aspergillus niger after 96 hrs by broth micro-dilution method
Escherichia coli = assay: Antibacterial activity against Escherichia coli after 48 hrs by broth micro-dilution method
[1] = test system: Trichophyton mentagrophytes; assay: Antifungal activity against Trichophyton mentagrophytes after 96 hrs by broth micro-dilution method
Cryptococcus neoformans = assay: Antifungal activity against Cryptococcus neoformans after 96 hrs by broth micro-dilution method
Micrococcus luteus = assay: Antibacterial activity against Micrococcus luteus after 48 hrs by broth micro-dilution method
Bacillus subtilis = assay: Antibacterial activity against Bacillus subtilis after 48 hrs by broth micro-dilution method
Candida albicans = assay: Antifungal activity against Candida albicans after 48 hrs by broth micro-dilution method

Row | SMILES | MIC (Staphylococcus aureus) [µg/mL] | IC50 (Aspergillus niger) [µg/mL] | MIC (Escherichia coli) [µg/mL] | IC50 [1] [µg/mL] | IC50 (Cryptococcus neoformans) [µg/mL] | MIC (Micrococcus luteus) [µg/mL] | MIC (Bacillus subtilis) [µg/mL] | IC50 (Candida albicans) [µg/mL]
1 | NC[C@H]1O[C@H](O[C@H]2[C@H](O)[C@@H](O[C@H]3O[C@H](CO)[C@@H](O)[C@H](N)[C@H]3O)[C@H](N)C[C@@H]2N)[C@H](O)[C@@H](O)[C@@H]1O [KANAMYCIN] | < 0.1 | 31.3 (≈ 64.6 µM) | < 0.1 | 7.8 (≈ 16.1 µM) | 7.8 (≈ 16.1 µM) | 1 (≈ 2.06 µM) | < 0.1 | > 62.5
2 | CN[C@H]1C[C@@H](N)[C@H](O)[C@@H](O[C@@H]2O[C@H](CO)[C@H](O)[C@@H]3O[C@@]4(O[C@H]23)O[C@H]([C@@H](N)CO)[C@H](O)[C@H](O)[C@H]4O)[C@@H]1O | 0.5 (≈ 0.948 µM) | 1 (≈ 1.9 µM) | 2 (≈ 3.79 µM) | 1 (≈ 1.9 µM) | 3.9 (≈ 7.39 µM) | 1 (≈ 1.9 µM) | 2 (≈ 3.79 µM) | 3.9 (≈ 7.39 µM)
3 | Cc1cccc(O)c1C(=O)O[C@H]1[C@H](O)[C@@H](O)[C@H](OC(N)=O)C[C@@H]1NC(=O)c1cccc(O)c1 | > 32 | > 32 | > 32 | > 32 | 16 (≈ 34.7 µM) | > 32 | > 32 | > 32
4 | C[C@@H]1[C@H](O)[C@@H](C)/C=C/C=C/C=C/C=C/C=C/C=C/C=C/[C@H](O[C@@H]2O[C@H](C)[C@@H](O)[C@H](N)[C@@H]2O)C[C@@H]2O[C@](O)(C[C@@H](O)C[C@@H](O)[C@H](O)CC[C@@H](O)C[C@@H](O)CC(=O)O[C@H]1C)C[C@H](O)[C@H]2C(=O)O [AMPHOTERICIN B] | > 31.2 | 1.8 (≈ 1.95 µM) | > 31.2 | 3.9 (≈ 4.22 µM) | < 0.05 | > 31.2 | > 31.2 | 1 (≈ 1.08 µM)
5 | Cc1cccc(O)c1C(=O)O[C@@H]1[C@@H](O)[C@H](O)[C@@H](NC(=O)c2cccc(O)c2)C[C@H]1OC(N)=O | > 32 | > 32 | > 32 | > 32 | 32 (≈ 69.5 µM) | > 32 | > 32 | > 32
6 | CCCCCOc1ccc(-c2cc(-c3ccc(C(=O)N[C@H]4C[C@@H](O)[C@@H](O)NC(=O)[C@@H]5[C@@H](O)[C@@H](C)CN5C(=O)[C@H]([C@H](O)CC(N)=O)NC(=O)[C@H]([C@H](O)[C@@H](O)c5ccc(O)c(OS(=O)(=O)O)c5)NC(=O)[C@@H]5C[C@@H](O)CN5C(=O)[C@H]([C@@H](C)O)NC4=O)cc3)no2)cc1 [MICAFUNGIN] (X1-[Orn(4R-OH,5R-OH)]T[Hyp][hTyr(3S-OH,4S-OH,3'-OSO3H)][Gln(3R-OH)][Pro(3S-OH,4S-Me)]; lactam 1-C) | 0.5 (≈ 0.394 µM) | < 0.1 | > 62.5 | < 0.1 | < 0.1 | 7.8 (≈ 6.14 µM) | 0.5 (≈ 0.394 µM) | < 0.1
